One assay relates to caspase 103. As to the kind of experiment: in vitro caspase substrate study (release of p-nitroaniline). Format: biochemical. From the text: (§1) ACAT mediates the esterification of intracellular cholesterol and is believed to play a key role in lipoprotein metabolism and atherogenesis (for a review: Suckling, K. E.; Stange, E. F. J. Lipid Res. 1985, 26, 647-671). […] The inhibition of CETP with these three compounds was then studied. CETP, a hydrophobic neutral glycoprotein, mediates the transfer of cholesteryl ester from high-density lipoprotein to low-density lipoprotein (For a review: Tall, A. R. J. Lipid Res. 1993, 34, 1255-1274). […] The N-(p-nitrophenyl)aspartamide portion of 104 was attached in order to study whether 104 was a substrate of […] (For a review: VIIIa, P.; Kaufmann, S. H.; Earnshaw, W. C. Trends Biochem. Sci. 1997, 22, 388-393). […] Compound 105 is cytotoxic to L1210 tumor cells, with IC50=30 μM. Aggarwal et al., J. Chem. Soc., Perkin Trans I (1999) 3315-3321 is incorporated by reference to the extent not inconsistent with the disclosure herewith.

In another assay the test system is MC65 cells. Kind of assay: protection from APP C99-induced cell death in MC65 cells. The format is cell-based. From the text:
The reported procedures for the inhibitory activities of ACAT (Tomoda, H.; Nishida, H.; Masuma, R.; Cao, J.; Okuda, S.; Omura, S. J. Antibiot. 1991, 44, 136-143), CETP (Tomoda, H.; Tabata, N.; Masuma, R.; Si, S.-Y.; Omura, S. J. Antibiot. 1998, 51, 618-623; D. H. Hua et al. Tetrahedron 2003, 59, 4795-4803), L1210 tumor cells (Perchellet, E. M.; Ladesich, J. B.; Magill, M. J.; Chen, Y.; Hua, D. H.; Perchellet, J. P. Anti-Cancer Drugs 1999, 10, 489-504), and APP C99-induced cell death (Jin, L.-W.; Hua, D. H.; Shie, F.-S.; Maezawa, I.; Sopher, B.; Martin, G. M. J. Mol. Neurosci. 2002, 19, 57-61) were followed. […]

A further assay concerns the target T1, CETP (Homo sapiens, UniProt P11597).
T1 sequence (P11597 18-493): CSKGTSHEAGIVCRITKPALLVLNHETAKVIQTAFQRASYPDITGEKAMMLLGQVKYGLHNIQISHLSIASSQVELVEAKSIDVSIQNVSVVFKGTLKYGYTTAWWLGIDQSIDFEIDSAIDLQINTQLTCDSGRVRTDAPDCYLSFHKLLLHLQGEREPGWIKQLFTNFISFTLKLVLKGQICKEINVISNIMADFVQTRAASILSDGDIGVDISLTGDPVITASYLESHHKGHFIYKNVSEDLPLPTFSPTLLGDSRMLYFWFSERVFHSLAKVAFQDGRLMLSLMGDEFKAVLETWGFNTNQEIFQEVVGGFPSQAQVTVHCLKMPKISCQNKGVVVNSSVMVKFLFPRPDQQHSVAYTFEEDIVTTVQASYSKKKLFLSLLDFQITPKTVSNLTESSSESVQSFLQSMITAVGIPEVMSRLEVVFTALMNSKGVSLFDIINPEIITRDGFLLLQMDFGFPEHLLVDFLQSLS
As to the kind of experiment: inhibition of CETP. Format: biochemical.
From the text: The reported procedures for the inhibitory activities of ACAT (Tomoda, H.; Nishida, H.; Masuma, R.; Cao, J.; Okuda, S.; Omura, S. J. Antibiot. 1991, 44, 136-143), CETP (Tomoda, H.; Tabata, N.; Masuma, R.; Si, S.-Y.; Omura, S. J. Antibiot. 1998, 51, 618-623; D. H. Hua et al. Tetrahedron 2003, 59, 4795-4803), L1210 tumor cells (Perchellet, E. M.; Ladesich, J. B.; Magill, M. J.; Chen, Y.; Hua, D. H.; Perchellet, J. P. Anti-Cancer Drugs 1999, 10, 489-504), and APP C99-induced cell death (Jin, L.-W.; Hua, D. H.; Shie, F.-S.; Maezawa, I.; Sopher, B.; Martin, G. M. J. Mol. Neurosci. 2002, 19, 57-61) were followed.
as §1

The subject of a further assay is ACAT. Kind of assay: inhibition of ACAT. The format is biochemical.

The EC50 is the concentration at which the effect is half-maximal. Low values mean an effect from little substance, high ones a need for much substance. A word on the IC50: it is the midpoint of a concentration-inhibition curve.

As to `C=C(C)[C@H]1CCC2=Cc3c(cc(CC(=O)N[C@@H](CC(=O)O)C(=O)Nc4ccc([N+](=O)[O-])cc4)oc3=O)O[C@H]2C1` [Compound 104], in the assay on caspase 103, the “substrate of caspase 103 (release of p-nitroaniline)” value is “not a substrate”. Besides, in the assay on MC65 cells (MC65 cells conditionally expressing partial APP fusion protein, absence of tetracycline), the “protection of MC65 cells from death (in words)” value is “protected from death”. The molecule further registered an EC50 in the assay with MC65 cells (MC65 cells in the absence of tetracycline) of 2 µM. Further, the IC50 against CETP was > 180 µM; in the assay with ACAT, 168 µM.

The values above are taken from patent US7935726B1, “Tricyclic pyrones” (Kansas State University Research Foundation, priority 1999, dated 2011).
